Source: patent publication US4985450A, “Arylthiadiazolylsulfonamides and derivatives” (priority 1989, dated 1991)

Columns and labels:
[1] = molecular target: carbonic anhydrase B (Homo sapiens, UniProt P00915); test: Carbonic anhydrase esterase inhibition (spectrophotometric rate of hydrolysis of 1 mM p-nitrophenyl acetate); format: biochemical; conditions: read-out: Carbonic Anhydase Esterase Inhibition IC50
Protocol: It is generally known that carbonic anhydrase inhibitors are useful for the treatment of glaucoma. The carbonic anhydrase inhibitory activities have been evaluated by spectrophotometrically measuring the rate of hydrolysis of 1 mM p-nitrophenyl acetate catalyzed by carbonic anhydrase B according to the procedure described in J. Armstrong et al., J. Biol. Chem., Vol 241, No. 21, pp 5137-5149 (1966).

[2] = test system: intraocular pressure in alpha-chymotrypsin-induced ocular hypertensive rabbit eyes; test: Alpha-chymotrypsin-induced ocular hypertension, maximum intraocular pressure drop; format: in vivo, New Zealand White rabbits
Protocol: This is done by the direct injection of the proteolytic enzyme, alpha-chymotrypsin into the posterior chamber of the rabbit eye.
Ocular hypertension is elicited in New Zealand White rabbits (2.0-2.5 kg) by the injection of alpha-chymotrypsin into the posterior chamber as described by Sears and Sears (Am. J. Ophthalmol. 77, 378-383, (1974). Briefly, the animals are pretreated with indomethacin (10 mg/kg i.p.) to prevent the otherwise immediate onset of inflammation. One hour later, the rabbits are anesthetized with a 2 ml intramuscular injection of a 50:50 mixture of xylazine (20 mg/kg) and ketamine (100 mg/kg). The eyes are individually proptosed and treated topically with 50 microliters of 0.5% proparacaine. The anterior chamber is cannulated with a 30-gauge needle attached to a reservoir set at a pressure of 25 mmHg. Then, 0.5 ml of alpha-chymotrypsin (350 units) is injected through the pupil near the limbus and into the posterior chamber using an S-curved, 30-gauge needle. During the injection, the tip of the needle is swept across the posterior chamber to distribute the enzyme. Care is taken to avoid injection of any enzyme into the corneal stroma. Both needles can then be carefully removed to prevent any significant loss of aqueous humor.
The eyes are examined biweekly for corneal lacerations and overt inflammatory responses. […] The intraocular pressures of the operated rabbits are checked approximately four weeks posttreatment. […]. Generally, about 50% of the operated eyes are suitable for study. Intraocular pressure is measured with a standard instrument and the results are expressed in terms of maximum (over measurment time) percentage drop of intraocular pressure.

carbonic anhydrase B, sequence (P00915 2-261 limits assumed): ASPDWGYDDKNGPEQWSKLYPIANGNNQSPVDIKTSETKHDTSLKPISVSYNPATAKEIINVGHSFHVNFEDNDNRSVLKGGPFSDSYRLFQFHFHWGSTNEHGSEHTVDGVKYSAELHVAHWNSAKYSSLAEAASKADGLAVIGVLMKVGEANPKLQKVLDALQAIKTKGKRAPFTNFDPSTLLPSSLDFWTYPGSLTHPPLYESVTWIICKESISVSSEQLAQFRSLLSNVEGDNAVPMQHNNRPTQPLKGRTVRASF

SMILES | IC50 [1] [µM] | Maximum Intraocular Pressure Drop ([2]; at 0.3%) [%] | Maximum Intraocular Pressure Drop ([2]; at 3%) [%] | Maximum Intraocular Pressure Drop ([2]; at 0.5%) [%] | Maximum Intraocular Pressure Drop ([2]; at 1.0%) [%]
NS(=O)(=O)c1nc(-c2ccccc2Cl)ns1 [3-(2-Chlorophenyl)-1,2,4-thiadiazole-5-sulfonamide] | 0.27 | 24.8 | – | – | –
COC(=NS(=O)(=O)c1nc(-c2ccccc2Cl)ns1)C(C)C [N-(1-Methoxy-2-methylpropylidene)-3-(2-chlorophenyl)-1,2,4-thiadiazole-5-sulfonamide] | 0.4 | 13 | 26 | – | –
CC(C)(C)NC[C@H](O)COc1nsnc1N1CCOCC1 [Timolol, reference compound] | – | – | – | 27.5 | 28.0
